{"source": "patent US10443043B2", "about": "“Methods for making induced pluripotent stem cells” (NEW YORK UNIVERSITY, priority 2015, dated 2019)", "assay_type_in_all_cases": "cell-based, mouse", "key": {"[1]": {"test_system": "reprogrammable MEFs", "assay": "Reprogramming of reprogrammable MEFs seeded in bulk, dox-independent colonies", "conditions": "six days dox plus compound, then three days unsupplemented ESC media", "protocol": "(§1) MEFs (Stadtfeld et al., 2008) and hepatoblasts (Gailhouste, 2012) were isolated from E14.5 embryos and GMPs, CMPs, MEP and LSK cells from either fetal liver or adult bone marrow (Akashi et al., 2000). All cell types used for reprogramming experiments were heterozygous for the inducible OKSM cassette, Rosa26-rtTA and the Oct4-GFP reporter. MEFs were expanded in reduced-oxygen conditions (4%) and used at passages 1 or 2. For reprogramming, cells were seeded in ESC media (DMEM with 15% FBS, L-glutamin, penicillin-streptomycin, nonessential amino acids, β-mercaptoethanol and 1000 U/ml LIF) at the desired density on a layer of irradiated feeder cells in presence of 1 mg/ml doxycycline. If applicable, L-Ascorbic acid (50 ng/μl), CHIR99021 (3 μM), TGFβ RI Kinase Inhibitor II (250 nM) and PD032590 (0.75 μM) were added. For GMPs and other blood progenitors, cultures were supplemented with Flt3-ligand (10 ng/ml) and SCF (20 ng/ml) for the first three days of reprogramming. Media was replenished every two days. To facilitate detection of Oct4-GFP expression in nascent colonies by fluorescent microscopy, reprogramming experiments were conducted in ESC media prepared with FluoroBrite DMEM (Life Technologies) when required. To score factor-independent colonies, dox (and other compounds) were removed by washing cultures twice with PBS and then maintaining them in ESC media for at least three days before colonies were counted by fluorescence microscopy or after alkaline phosphatase staining (Vector Laboratories). For quantification of Oct4-GFP expression, cultures were harvested by trypsin digestion, stained with DAPI or 7-AAD to exclude dead cells, acquired on a LSRII cytometer (BD Biosciences) and analyzed with FlowJo software (Tree Star Inc.).\nThe aforementioned compounds were tested using “reprogrammable MEFs” (Stadtfeld et al., 2010) engineered to express a doxycycline (dox)-inducible cassette encoding OKSM (Sommer et al., 2009) from a single defined genomic position and a GFP reporter from the endogenous Oct4 locus, whose expression is a hallmark of the pluripotent state. […]"}, "[2]": {"test_system": "GMPs", "assay": "Bulk reprogramming of granulocyte-macrophage progenitors, dox-independent colonies", "protocol": "as §1, with “For GMPs and other blood progenitors, cultures were supplemented with Flt3-ligand (10 ng/ml) and SCF (20 ng/ml) for the first three days of reprogramming. Media was replenished every two days. To facilitate detection of Oct4-GFP expression in nascent colonies by fluorescent microscopy, reprogramming experiments were conducted in ESC media prepared with FluoroBrite DMEM (Life Technologies) when required.” left out, “Inc.). […]” for “Inc.).”"}, "[3]": {"test_system": "SSEA1+ day 4 intermediates of reprogrammable MEFs", "assay": "Microarray and gene ontology analysis of day 4 reprogramming intermediates", "conditions": "individual chemical", "source_text": "For the study of reprogramming intermediates, cultures of reprogrammable MEFs at day 4 in presence of OKSM expression were harvested and stained with biotinylated anti-SSEA1 antibody (MC-480, eBioscience), followed by APC-conjugated Streptavidin and anti-APC microbeads (Milteny Biotec). SSEA1^+ cells were enriched to ˜90% purity using MACS separation columns (Milteny Biotec) according to the manufacturer's instructions. Total RNA extracted with the miRNeasy mini kit (QIAGEN) with a RIN value >8 was subjected to transcriptional analyses with Affymetrix mouse genome 430 2.0 mRNA expression microarrays followed by bioinformatic analyses.\nPair-wise differential expression of MEFs, ESCs, GMPs and HEPs was assessed using a t-test and the resulting p-values were adjusted for multiple hypothesis testing as by the Benjamini & Hochberg procedure. […] FDR was assessed using the following methodology. […] Briefly, differential expression was assessed for every Affymetrix transcript probe between samples. As a preprocessing step, quantiles were normalized across samples and replicates, and subsequently fold changes were computed for each probe across the two replicates of each sample. The false discovery rate was computed by comparing the distribution of fold changes against the distribution of fold changes between replicates of the same sample."}, "[4]": {"test_system": "GMPs", "assay": "Single cell seeding of DsRed GMPs, Oct4-GFP expression", "conditions": "flow cytometry, six days", "protocol": "as §1, with “For GMPs and other blood progenitors, cultures were supplemented with Flt3-ligand (10 ng/ml) and SCF (20 ng/ml) for the first three days of reprogramming. Media was replenished every two days. To facilitate detection of Oct4-GFP expression in nascent colonies by fluorescent microscopy, reprogramming experiments were conducted in ESC media prepared with FluoroBrite DMEM (Life Technologies) when required.” left out, “Inc.). […]” for “Inc.).”"}, "[5]": {"test_system": "hepatoblasts", "assay": "Reprogramming of hepatoblasts, dox-independent colonies", "conditions": "compound alone", "protocol": "as §1, with “For GMPs and other blood progenitors, cultures were supplemented with Flt3-ligand (10 ng/ml) and SCF (20 ng/ml) for the first three days of reprogramming. Media was replenished every two days. To facilitate detection of Oct4-GFP expression in nascent colonies by fluorescent microscopy, reprogramming experiments were conducted in ESC media prepared with FluoroBrite DMEM (Life Technologies) when required.” left out, “Inc.). […]” for “Inc.).”"}, "[6]": {"test_system": "β-catenin", "assay": "β-catenin immunofluorescence in GMPs", "conditions": "purified GMPs cultured in CHIR, two days", "text": "FIG. 8A-8G. Related to FIG. 3. (8A) Fluorescence images of DsRed and Oct4-GFP expression in a representative GMP-derived colony derived upon culture in dox+CHIR for six days. (8B) Percentage of Oct4-GFP^+ cells in successfully reprogramming colonies after single cell seeding of GMPs in dox+CHIR or dox+3c, respectively (n=10 clonal colonies for each condition). (8C) AP staining of dox-independent colonies derived from LSK, GMP, MEP and CMPs in dox, dox+CHIR or dox+3c after six days of culture. (8D) Percentage of Oct4-GFP^+ cells in colonies obtained after single cell seeding of hepatoblasts and culture under the indicated conditions for six days (n=10 clonal colonies). (8E) IF images of β-catenin staining in cells derived from GMPs cultured under dox or dox+CHIR for two days. White arrows highlight representative cells positive for β-catenin expression. […]\nCells were fixed with paraformaldehyde, permeabilized and stained with primary antibodies against Oct4 (Santa Cruz, sc-8628), Nanog (Abcam, ab808992), Utf1 (Abcam, ab24273), Sall4 (Abcam, ab29112), Lin28 (Abcam, ab46020) and β-catenin (Sigma, C7207) followed by staining with appropriate secondary antibodies conjugated to either Alexa Fluor 555 or 647 (Invitrogen). Images were acquired with a Neo 5.5 cSMOS camera (Andor) and processed and analyzed using NIS-Elements and Adobe Photoshop. […]"}}, "data": [{"compound": "O=C1O[C@H]([C@@H](O)CO)C(O)=C1O", "note": "[AA, ascorbic acid]", "values": [{"measurement": "dox-independent colonies, efficiency of input cells", "setting": "[1]", "result": "about 2%"}, {"measurement": "effect on iPSC formation from blood progenitor cells", "setting": "[2]", "result": "did not significantly enhance"}, {"measurement": "aspect of the somatic program whose silencing is facilitated (GO analysis)", "setting": "[3]", "result": "mesodermal differentiation potential"}]}, {"compound": "Cc1c[nH]c(-c2cnc(NCCNc3ccc(C#N)cn3)nc2-c2ccc(Cl)cc2Cl)n1", "note": "[CHIR]", "values": [{"measurement": "average GFP labeling index (Oct4-GFP+ cells in colonies)", "setting": "[4]", "result": "over 90%"}, {"measurement": "effect on number of iPSC colonies from hepatoblasts", "setting": "[5]", "result": "little beneficial effect"}, {"measurement": "β-catenin protein level", "setting": "[6]", "result": "rapidly accumulated"}, {"measurement": "dox-independent colonies, efficiency of input cells", "setting": "[1]", "result": 0.5, "unit": "%"}]}, {"compound": "Cc1cccc(-c2[nH]ncc2-c2ccc3ncccc3n2)n1", "note": "[iAlk5]", "values": [{"measurement": "dox-independent colonies, efficiency of input cells", "setting": "[1]", "result": "about 2%"}, {"measurement": "aspect of the somatic program whose silencing is facilitated (GO analysis)", "setting": "[3]", "result": "collagen synthesis"}]}]}
